Test results published in patent US20180153840A1, “THE COMPOSITIONS OF GLYCEROL AND /OR NON-TOXIC AMINO ACIDS FOR INHIBITING AND DESTROYING BIOFILM, INCLUDING RELATED METHODS” (priority 2015, published 2018).
Read-outs that look alike come from different tables or passages of the source.

Columns and labels:
S. aureus biofilm [1] = assay: Bacterial biofilm inhibition assay; assay type: cell-based, Staphylococcus aureus; details: sustained inhibition assay; S. aureus; 1% amino acid; p≤0.001
Procedure: (§1) For fungal biofilm assays, all solutions were prepared in RPMI 1640 medium. All bacterial biofilm solutions were prepared in Trypic Soy Broth (TSB), supplemented with 1% glucose (henceforth referred to as TSB-G). All subsequent procedures were performed in a manner that maintained sterility. A solution of each amino acid to be tested was prepared in weight to volume concentrations ranging from 0.1-5.0%. Amino acids were also tested in combinations. Compound solutions were homogenized with gentle agitation in the dark (4° C., 24 hours) before use.
(§2) All biofilm assays were performed using 384-well non-tissue culture treated polystyrene plates. The fungal species tested are as follows: Candida albicans, Candida guilliermondii Candida parapsilosis, Candida glabrata, Candida tropicalis and Candida dubliniensis. The bacterial species tested are as follows: Staphylococcus aureus (standard wild type and methicillin-resistant strain USA300), Escherichia coli, Pseudomonas aeruginosa and Staphylococcus epidermidis.
(§3) Bacterial strains were streaked on Blood Agar plates (5% sheep blood in Tryptic Soy Broth) and incubated at 37° C. for 24 hours. A single colony from each strain to be tested was inoculated in a TSB broth and grown for 12 hours, at 37° C. with shaking (225 rpm).
(§4) For the bacterial biofilm inhibition assays, 1 μL of saturated overnight cell culture was added to either 80 μL of TSB-G, or TSB-G supplemented with the amino acid compound solution to be tested, in a 384-well plate. The cells were allowed to adhere to the plate for 60 minutes at 37° C. without shaking. The media was carefully aspirated and 80 μL of TSB-G, or TSB-G supplemented with the amino acid compound solution was added to the plate. The plate was further incubated for 24 hours at 37° C. without shaking. Media was carefully aspirated and the biofilm was measured for bacterial cell concentration by optical density at 600 nm. Eight or twelve replicates were performed for each tested condition and the reported values were normalized to the control (TSB-G media only).

[2] = tested on: bacteria (S. aureus) biofilm and fungal (C. albicans) biofilm; assay: Sustained inhibition biofilm assay, bacterial and fungal together (Table C: Both/Neutral); assay type: cell-based, Staphylococcus aureus; Candida albicans; details: 1% amino acid
Procedure: as §1, §2
Fungal strains were streaked on Yeast Peptone Dextrose (YPD) agar plates and incubated at 30° C. for 48 hours. A single colony from each strain to be tested was inoculated into YPD broth and grown for 12 hours, at 30° C., shaking at 225 rpm. For the fungal biofilm inhibition assay, 1 μl of saturated overnight cell culture was added to either 80 μL of RPMI-1640 or RPMI-1640 supplemented with the amino acid compound solution to be tested, in a 384-well plate. The cells were allowed to adhere to the plate for 90 minutes at 37° C. with shaking (350 rpm). […] Media was carefully aspirated and the biofilm was measured for fungal cell concentration by optical density at 600 nm. […]
For the bacterial biofilm inhibition assays, 1 μL of saturated overnight cell culture was added to either 80 μL of TSB-G, or TSB-G supplemented with the amino acid compound solution to be tested, in a 384-well plate. […] Media was carefully aspirated and the biofilm was measured for bacterial cell concentration by optical density at 600 nm. […]

[3] = tested on: bacteria (S. aureus) biofilm and fungal (C. albicans) biofilm; assay: Disruption biofilm assay, bacterial and fungal together (Table D: Both/Neutral); assay type: cell-based, Staphylococcus aureus; Candida albicans; details: 1% amino acid
Procedure: as §1, §2
For the fungal biofilm disruption assays, 80 μL of RPMI-1640 was added to the plate, along with 1 μL of overnight cell culture. The cells were allowed to adhere to the plate for 90 minutes at 37° C. with shaking (350 rpm). Loosely bound cells were washed once with PBS and 80 μL of RPMI-1640 was added to the plate. The plate was further incubated for 24 hours at 37° C. with shaking (350 rpm). Media was carefully aspirated from the mature biofilm and 80 μL of RPMI-1640, or RPMI-1640 supplemented with the amino acid compound solution to be tested, was gently added to the plate. The plate was further incubated for 24 hours at 37° C. with shaking (350 rpm). Media was carefully aspirated and the biofilm was measured for fungal cell concentration by optical density at 600 nm. […]
For the bacterial biofilm disruption assays, 80 μL of TSB-G was added to the plate, along with 1 μL of overnight cell culture. […] Media was aspirated and the biofilm was measured for bacterial cell concentration by optical density at 600 nm. […]

[4] = tested on: bacterial and fungal biofilms; assay: In vitro testing on bacterial and fungal biofilms; assay type: cell-based; details: for effect on bacterial and fungal biofilm (in words): in vitro
Procedure: as §1, §2
(§5) Fungal strains were streaked on Yeast Peptone Dextrose (YPD) agar plates and incubated at 30° C. for 48 hours. A single colony from each strain to be tested was inoculated into YPD broth and grown for 12 hours, at 30° C., shaking at 225 rpm. For the fungal biofilm inhibition assay, 1 μl of saturated overnight cell culture was added to either 80 μL of RPMI-1640 or RPMI-1640 supplemented with the amino acid compound solution to be tested, in a 384-well plate. The cells were allowed to adhere to the plate for 90 minutes at 37° C. with shaking (350 rpm). Loosely bound cells were washed once with phosphate buffered saline (PBS) and 80 ul of RPMI-1640, or RPMI-1640 supplemented with the amino acid compound solution was added to the plate. The plate was further incubated for 24 hours at 37° C. with shaking (350 rpm). Media was carefully aspirated and the biofilm was measured for fungal cell concentration by optical density at 600 nm. Twelve replicates were performed for each tested condition and the reported values were normalized to the control (RPMI-1640 media only).
(§6) For the fungal biofilm disruption assays, 80 μL of RPMI-1640 was added to the plate, along with 1 μL of overnight cell culture. The cells were allowed to adhere to the plate for 90 minutes at 37° C. with shaking (350 rpm). Loosely bound cells were washed once with PBS and 80 μL of RPMI-1640 was added to the plate. The plate was further incubated for 24 hours at 37° C. with shaking (350 rpm). Media was carefully aspirated from the mature biofilm and 80 μL of RPMI-1640, or RPMI-1640 supplemented with the amino acid compound solution to be tested, was gently added to the plate. The plate was further incubated for 24 hours at 37° C. with shaking (350 rpm). Media was carefully aspirated and the biofilm was measured for fungal cell concentration by optical density at 600 nm. Twelve replicates were performed for each tested condition and the reported values are normalized to the control (RPMI-1640 media only).
as §3
as §4, with “nm.” for “nm. Eight or twelve replicates were performed for each tested condition and the reported values were normalized to the control (TSB-G media only).”

S. aureus biofilm [5] = assay: Bacterial biofilm disruption assay; assay type: cell-based; details: Staphylococcus aureus, read-out: Reduce B Biofilm
Procedure: as §1, §2, §3
(§7) For the bacterial biofilm disruption assays, 80 μL of TSB-G was added to the plate, along with 1 μL of overnight cell culture. The cells were allowed to adhere to the plate for 60 minutes at 37° C. without shaking. The media was carefully aspirated and 80 μL of TSB-G was added to the plate. The plate was further incubated for 24 hours at 37° C. without shaking. Media was carefully aspirated from the mature biofilm and 80 μL of TSB-G, or TSB-G supplemented with the amino acid to be tested, was gently added to the plate. The plate was further incubated for 24 hours at 37° C. without shaking. Media was aspirated and the biofilm was measured for bacterial cell concentration by optical density at 600 nm. Twelve replicates were performed for each tested condition and the reported values were normalized to the control (TSB-G media only).

C. albicans biofilm [6] = assay: Fungal biofilm disruption assay; assay type: cell-based, Candida albicans; details: 1% amino acid, p≤0.001
Procedure: as §1, §2, §6

C. albicans biofilm [7] = assay: Fungal biofilm inhibition assay; assay type: cell-based, Candida albicans; details: sustained inhibition assay, 1% amino acid, p≤0.001
Procedure: as §1, §2, §5

bacterial biofilms = assay: Bacterial biofilm assays (sustained inhibition and/or disruption); assay type: cell-based, Staphylococcus aureus; details: individually, about 0.1 to about 5.0% weight to volume (cystathionine 0.2%); at least one of the two assays
Procedure: as §1, §2, §3, §4, §7

fungal biofilms = assay: Fungal biofilm assays (sustained inhibition and/or disruption); assay type: cell-based, Candida albicans; details: at least one of the two assays (sustained inhibition and/or disruption); for anti-biofilm properties against fungal biofilms: administered individually
Procedure: as §1, §2, §5, §6

[8] = Procedure: as §1, §2
[9] = disruption assay, S. aureus, 1% amino acid, p≤0.001

Structure (SMILES): N[C@@H](CCC(=O)O)C(=O)O [Glutamic Acid, L-glutamic acid]
- Reduce B Biofilm (S. aureus biofilm [1]): •• (two dots (●●) signifies an effect of greater than 30% change)
- Reduce Both [2]: •• (two dots (●●) signifies an effect of greater than 30% change)
- Reduce Both [3]: •• (two dots (●●) signifies an effect of greater than 30% change)
- effect on bacterial and fungal biofilm (in words) [4]: very active against biofilm
- inhibition at 1 % (S. aureus biofilm [5]; [9]): > 30%
- Reduce F Biofilm (C. albicans biofilm [6]): •• (two dots (●●) signifies an effect of greater than 30% change)
- Reduce F Biofilm (C. albicans biofilm [7]): •• (two dots (●●) signifies an effect of greater than 30% change)

Structure (SMILES): O=C(O)[C@@H]1C[C@@H](O)CN1 [Hydroxyproline, Trans-4-hydroxy-L-proline]
- Reduce B Biofilm (S. aureus biofilm [1]): • (a single dot (●) signifies an effect in a range of about 10 to about 30% change)
- anti-biofilm properties against bacterial biofilms (bacterial biofilms): anti-biofilm properties against bacterial biofilms
- inhibition at 1 % (S. aureus biofilm [5]): 10 to 30%
- anti-biofilm properties against fungal biofilms (fungal biofilms): anti-biofilm properties against fungal biofilms
- Reduce F Biofilm (C. albicans biofilm [7]): • (a single dot (●) signifies an effect in a range of about 10 to about 30% change)

Structure (SMILES): NCCO [Ethanolamine, ethanolamine]
- anti-biofilm properties against bacterial biofilms (bacterial biofilms): anti-biofilm properties against bacterial biofilms
- anti-biofilm properties against fungal biofilms (fungal biofilms): anti-biofilm properties against fungal biofilms
- Reduce F Biofilm (C. albicans biofilm [7]): • (a single dot (●) signifies an effect in a range of about 10 to about 30% change)

Structure (SMILES): N[C@@H](COP(=O)(O)O)C(=O)O [Phosphoserine, O-phospho-L-serine]
- anti-biofilm properties against bacterial biofilms (bacterial biofilms): anti-biofilm properties against bacterial biofilms
- inhibition at 1 % (S. aureus biofilm [5]; [9]): 10 to 30%
- Reduce F Biofilm (C. albicans biofilm [6]): • (a single dot (●) signifies an effect in a range of about 10 to about 30% change)
- anti-biofilm properties against fungal biofilms (fungal biofilms): anti-biofilm properties against fungal biofilms

Structure (SMILES): N[C@@H](CS)C(=O)O [Cysteine, L-cysteine]
- Reduce B Biofilm (S. aureus biofilm [1]): •• (two dots (●●) signifies an effect of greater than 30% change)
- Reduce Both [2]: •• (two dots (●●) signifies an effect of greater than 30% change)
- Reduce Both [3]: •• (two dots (●●) signifies an effect of greater than 30% change)
- inhibition at 1 % (S. aureus biofilm [5]; [9]): > 30%
- Reduce F Biofilm (C. albicans biofilm [6]): •• (two dots (●●) signifies an effect of greater than 30% change)
- Reduce F Biofilm (C. albicans biofilm [7]): •• (two dots (●●) signifies an effect of greater than 30% change)

Structure (SMILES): N[C@@H](CC(=O)O)C(=O)O [Aspartic Acid, L-aspartic acid]
- Reduce B Biofilm (S. aureus biofilm [1]): •• (two dots (●●) signifies an effect of greater than 30% change)
- Reduce Both [2]: •• (two dots (●●) signifies an effect of greater than 30% change)
- Reduce Both [3]: •• (two dots (●●) signifies an effect of greater than 30% change)
- effect on bacterial and fungal biofilm (in words) [4]: very active against biofilm
- inhibition at 1 % (S. aureus biofilm [5]; [9]): > 30%
- Reduce F Biofilm (C. albicans biofilm [6]): •• (two dots (●●) signifies an effect of greater than 30% change)
- Reduce F Biofilm (C. albicans biofilm [7]): •• (two dots (●●) signifies an effect of greater than 30% change)

Structure (SMILES): Cn1cncc1C[C@H](N)C(=O)O [3-Methylhistidine, 3-methyl-L-histidine]
- anti-biofilm properties against bacterial biofilms (bacterial biofilms): anti-biofilm properties against bacterial biofilms
- inhibition at 1 % (S. aureus biofilm [5]; [9]): 10 to 30%
- Promote F Biofilm (C. albicans biofilm [6]): • (a single dot (●) signifies an effect in a range of about 10 to about 30% change)
- support (improve) fungal biofilm growth (fungal biofilms): support (improve) fungal biofilm growth
- Promote F Biofilm (C. albicans biofilm [7]): • (a single dot (●) signifies an effect in a range of about 10 to about 30% change)

Structure (SMILES): N[C@@H](CCSC[C@H](N)C(=O)O)C(=O)O [Cystathionine, L-cystathionine]
- anti-biofilm properties against bacterial biofilms (bacterial biofilms): anti-biofilm properties against bacterial biofilms
- inhibition at 0.2 % (S. aureus biofilm [5]; disruption assay, S. aureus, 0.2% amino acid): 10 to 30%
- solubility (in words) [8]: limited solubility

Structure (SMILES): CC(C)[C@H](N)C(=O)O [Valine, L-valine]
- effect on bacterial and fungal biofilm (in words) [4]: promote bacterial and fungal biofilm
- Promote F Biofilm (C. albicans biofilm [6]): • (a single dot (●) signifies an effect in a range of about 10 to about 30% change)
- support (improve) fungal biofilm growth (fungal biofilms): support (improve) fungal biofilm growth
- Promote F Biofilm (C. albicans biofilm [7]): • (a single dot (●) signifies an effect in a range of about 10 to about 30% change)

Structure (SMILES): Cn1cnc(C[C@H](N)C(=O)O)c1 [1-Methylhistidine, 1-methyl-L-histidine]
- neutral, effect on bacterial or fungal biofilms ([4]; both assays (sustained inhibition and disruption)): no effect on bacterial or fungal biofilms
- solubility (in words) [8]: limited solubility
